# Test results taken from ChEMBL document CHEMBL1126278, “New neplanocin analogues. 1. Synthesis of 6'-modified neplanocin A derivatives as broad-spectrum antiviral agents” (J Med Chem, 1992).
# How the values were obtained:
# MDCK [1] = test: cells; settings: Canis lupus familiaris
# Vero [2] = test: Inhibitory effect on replication of RNA virus cell morphology in Vero cell line.; assay type: functional, cell-based; settings: Chlorocebus sabaeus
# MT4 [3] = test: Inhibitory effect on replication of RNA virus cell growth in MT-4 cell line.; assay type: functional, cell-based; settings: Homo sapiens
# ESM [4] = test: Inhibitory effect on replication of DNA virus TK-HSV-1 (B2006) on ESM cell line.; assay type: functional, cell-based
# ESM [5] = test: Inhibitory effect on replication of RNA virus cell morphology in ESM cell line.; assay type: functional, cell-based
# Vero [6] = test: Inhibitory effect on replication of RNA virus TV in Vero cell line.; assay type: functional, cell-based; settings: Chlorocebus sabaeus
# HEL [7] = test: Inhibitory effect on replication of DNA virus CMV (Davis) on HEL cell line.; assay type: functional, cell-based; settings: Homo sapiens
# HeLa [8] = test: Inhibitory effect on replication of RNA virus RSV in HeLa cell line; assay type: functional, cell-based; settings: Homo sapiens
# HEL [9] = test: Inhibitory effect on replication of DNA virus Cell growth on HEL cell line.; assay type: functional, cell-based; settings: Homo sapiens
# PRK [10] = test: Inhibitory effect on replication of RNA virus VSV in PRK cell line.; assay type: functional, cell-based; settings: Oryctolagus cuniculus
# ESM [11] = test: Inhibitory effect on replication of DNA virus VV on ESM cell line.; assay type: functional, cell-based
# HeLa [12] = test: Inhibitory effect on replication of RNA virus coxsB-4 in HeLa cell line.; assay type: functional, cell-based; settings: Homo sapiens
# Vero [13] = test: Inhibitory effect on replication of RNA virus reo-1 in Vero cell line.; assay type: functional, cell-based; settings: Chlorocebus sabaeus
# HEL [14] = test: Inhibitory effect on replication of DNA virus VZV (Oka) on HEL cell line.; assay type: functional, cell-based; settings: Homo sapiens
# MDCK [15] = test: cells; settings: Canis lupus familiaris; remark: listed apart in the source
# MDCK [16] = test: Inhibitory effect on replication of RNA virus cell morphology in MDCK cell line.; assay type: functional, cell-based; settings: Canis lupus familiaris
# MT4 [17] = test: Inhibitory effect on replication of RNA virus HIV-1 in MT-4 cell line.; assay type: functional, cell-based; settings: Homo sapiens
# ESM [18] = test: Inhibitory effect on replication of DNA virus HSV-1 (KOS) in ESM cell line; assay type: functional, cell-based
# ESM [19] = test: Inhibitory effect on replication of RNA virus VSV in ESM cell line.; assay type: functional, cell-based
# HeLa [20] = test: Inhibitory effect on replication of RNA virus VSV in HeLa cell line.; assay type: functional, cell-based; settings: Homo sapiens
# HEL [21] = test: Inhibitory effect on replication of DNA virus CMV (AD-169) on HEL cell line.; assay type: functional, cell-based; settings: Homo sapiens
# HEL [22] = test: Inhibitory effect on replication of DNA virus TK-VZV (07-1) on HEL cell line.; assay type: functional, cell-based; settings: Homo sapiens
# ESM [23] = test: Inhibitory effect on replication of DNA virus HSV-2 (G) in ESM cell line; assay type: functional, cell-based
# Vero [24] = test: Inhibitory effect on replication of RNA virus JV in Vero cell line.; assay type: functional, cell-based; settings: Chlorocebus sabaeus
# PRK [25] = test: Inhibitory effect on replication of RNA virus cell morphology in PRK cell line.; assay type: functional, cell-based; settings: Oryctolagus cuniculus
# Vero [26] = test: Inhibitory effect on replication of RNA virus PV-3 in Vero cell line.; assay type: functional, cell-based; settings: Chlorocebus sabaeus
# [27] = Inhibitory effect on replication of DNA virus HSV-1 (KOS) in PRK cell line.; assay type: functional, cell-based; settings: Oryctolagus cuniculus
# PRK [28] = test: Inhibitory effect on replication of DNA virus VV on PRK cell line.; assay type: functional, cell-based; settings: Oryctolagus cuniculus
# Vero [29] = test: Inhibitory effect on replication of RNA virus RNA synthesis in Vero cell line.; assay type: functional, cell-based; settings: Chlorocebus sabaeus
# PRK [30] = test: Inhibitory effect on replication of DNA virus Cell morphology on PRK cell line; assay type: functional, cell-based; settings: Oryctolagus cuniculus
# HeLa [31] = test: cells; settings: Homo sapiens
# Vero [32] = test: Inhibitory effect on replication of RNA virus SFV in Vero cell line; assay type: functional, cell-based; settings: Chlorocebus sabaeus
# ESM [33] = test: Inhibitory effect on replication of DNA virus TK-HSV-1 (VMW 1837) on ESM cell line.; assay type: functional, cell-based
# Vero [34] = test: Inhibitory effect on replication of RNA virus coxsB-4 in Vero cell line; assay type: functional, cell-based; settings: Chlorocebus sabaeus
# Vero [35] = test: Inhibitory effect on replication of RNA virus protein synthesis in Vero cell line.; assay type: functional, cell-based; settings: Chlorocebus sabaeus
# Vero [36] = test: Inhibitory effect on replication of RNA virus SV in Vero cell line.; assay type: functional, cell-based; settings: Chlorocebus sabaeus
# ESM [37] = test: Inhibitory effect on replication of DNA virus Cell morphology on ESM cell line; assay type: functional, cell-based
# Vero [38] = test: Inhibitory effect on replication of RNA virus measles on Vero cell line.; assay type: functional, cell-based; settings: Chlorocebus sabaeus
# HEL [39] = test: Inhibitory effect on replication of DNA virus TK-VZV (YSR) on HEL cell line.; assay type: functional, cell-based; settings: Homo sapiens
# [40] = Inhibitory effect on replication of DNA virus HSV-2 (G) in PRK cell line.; assay type: functional, cell-based; settings: Oryctolagus cuniculus
# HEL [41] = test: Inhibitory effect on replication of DNA virus VZV (YS) on HEL cell line.; assay type: functional, cell-based; settings: Homo sapiens
# HeLa [42] = test: Inhibitory effect on replication of DNA virus RNA virus cell morphology in HeLa cell line.; assay type: functional, cell-based; settings: Homo sapiens
# MT4 [43] = test: Inhibitory effect on replication of RNA virus HIV-2 in MT-4 cell line.; assay type: functional, cell-based; settings: Homo sapiens
# Adenosylhomocysteinase = Adenosylhomocysteinase (Mus musculus, UniProt P50247); test: Inhibitory effect against L929 Cell S-adenosyl-L-homocysteine hydrolase
# Chain of Adenosylhomocysteinase (P50247 whole entry): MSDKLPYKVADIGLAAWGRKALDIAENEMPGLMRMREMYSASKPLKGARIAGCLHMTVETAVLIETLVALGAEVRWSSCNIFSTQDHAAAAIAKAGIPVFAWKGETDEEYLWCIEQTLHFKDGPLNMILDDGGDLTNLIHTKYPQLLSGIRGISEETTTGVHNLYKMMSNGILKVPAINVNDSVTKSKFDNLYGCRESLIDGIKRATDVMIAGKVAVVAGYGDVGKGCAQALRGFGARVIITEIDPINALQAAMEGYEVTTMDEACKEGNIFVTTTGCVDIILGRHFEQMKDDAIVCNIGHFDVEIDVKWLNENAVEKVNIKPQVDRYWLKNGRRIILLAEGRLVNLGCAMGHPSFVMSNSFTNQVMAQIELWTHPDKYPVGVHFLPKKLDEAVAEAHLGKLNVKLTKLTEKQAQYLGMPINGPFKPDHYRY
# HeLa [44] = test: Inhibitory effect on replication of RNA virus cell morphology in HeLa cell line.; assay type: functional, cell-based; settings: Homo sapiens
compound,measurement,setting,value
Nc1ncnc2c1ncn2[C@@H]1C=C(CO)[C@@H](O)[C@H]1O [NEOPLANOCIN A],IC50,MDCK [1],> 20 µg/mL
same,IC50,Vero [2],10 µg/mL
same,IC50,MT4 [3],0.02 µg/mL
same,IC50,ESM [4],4 µg/mL
same,IC50,ESM [5],40 µg/mL
same,IC50,Vero [6],0.4 µg/mL
same,IC50,HEL [7],0.2 µg/mL
same,IC50,HeLa [8],0.2 µg/mL
same,IC50,HEL [9],16 µg/mL
same,IC50,PRK [10],0.2 µg/mL
same,IC50,ESM [11],0.2 µg/mL
same,IC50,HeLa [12],> 40 µg/mL
same,IC50,Vero [13],0.4 µg/mL
same,IC50,HEL [14],8 µg/mL
same,IC50,MDCK [15],> 20 µg/mL
same,IC50,MDCK [16],20 µg/mL
same,IC50,MT4 [17],> 0.006 µg/mL
same,IC50,ESM [18],20 µg/mL
same,IC50,ESM [19],0.2 µg/mL
same,IC50,HeLa [20],0.2 µg/mL
same,IC50,HEL [21],0.3 µg/mL
same,IC50,HEL [22],5 µg/mL
same,IC50,ESM [23],10 µg/mL
same,IC50,Vero [24],0.4 µg/mL
same,IC50,PRK [25],40 µg/mL
same,IC50,Vero [26],0.4 µg/mL
same,IC50,[27],> 40 µg/mL
same,IC50,PRK [28],0.2 µg/mL
same,IC50,Vero [29],0.21 µg/mL
same,IC50,PRK [30],40 µg/mL
same,IC50,HeLa [31],> 40 µg/mL
same,IC50,Vero [32],> 40 µg/mL
same,IC50,ESM [33],7 µg/mL
same,IC50,Vero [34],> 40 µg/mL
same,IC50,Vero [35],4.3 µg/mL
same,IC50,Vero [36],> 40 µg/mL
same,IC50,ESM [37],40 µg/mL
same,IC50,Vero [38],0.2 µg/mL
same,IC50,HEL [39],2 µg/mL
same,IC50,[40],> 40 µg/mL
same,IC50,HEL [41],5 µg/mL
same,IC50,HeLa [42],20 µg/mL
CC1=C[C@@H](n2cnc3c(N)ncnc32)[C@H](O)[C@@H]1O,IC50,MDCK [1],> 100 µg/mL
same,IC50,Vero [2],40 µg/mL
same,IC50,MT4 [3],2.5 µg/mL
same,IC50,Vero [6],0.4 µg/mL
same,IC50,HEL [7],1.5 µg/mL
same,IC50,HeLa [8],10 µg/mL
same,IC50,PRK [10],0.7 µg/mL
same,IC50,HeLa [12],> 200 µg/mL
same,IC50,Vero [13],0.7 µg/mL
same,IC50,HEL [14],20 µg/mL
same,IC50,MDCK [15],> 100 µg/mL
same,IC50,MDCK [16],> 100 µg/mL
same,IC50,MT4 [17],> 1.5 µg/mL
same,IC50,MT4 [43],> 1.5 µg/mL
same,IC50,HeLa [20],7 µg/mL
same,IC50,HEL [21],2.5 µg/mL
same,Ki,Adenosylhomocysteinase,150 nM
same,IC50,HeLa [44],> 400 µg/mL
same,IC50,HEL [22],4 µg/mL
same,IC50,Vero [24],0.4 µg/mL
same,IC50,PRK [25],> 400 µg/mL
same,IC50,Vero [26],20 µg/mL
same,IC50,[27],> 200 µg/mL
same,IC50,PRK [28],0.7 µg/mL
same,IC50,Vero [29],1.7 µg/mL
same,IC50,PRK [30],> 400 µg/mL
same,IC50,HeLa [31],> 200 µg/mL
same,IC50,Vero [32],> 200 µg/mL
same,IC50,Vero [34],> 200 µg/mL
same,IC50,Vero [35],4.7 µg/mL
same,IC50,Vero [36],> 200 µg/mL
same,IC50,Vero [38],4 µg/mL
same,IC50,HEL [39],10 µg/mL
same,IC50,[40],> 200 µg/mL
same,IC50,HEL [41],2 µg/mL
